Data on 26 molecules can be found in patent publication US9951068B2 (Proximagen Limited, priority 2013, dated 2018).

Data set [1] has as its target purified recombinantly expressed human SSAO (Homo sapiens (Human), UniProt Q16853). In words: SSAO enzyme inhibition assay (HRP-coupled hydrogen peroxide detection or 14C-benzaldehyde detection, benzylamine substrate). In kind it is biochemical. The settings on record: SSAO inhibitory activity, human recombinant SSAO, RT. As to the method: All primary assays were performed at RT. with purified recombinantly expressed human SSAO. Enzyme was prepared essentially as described in Öhman et al. (Protein Expression and Purification 46 (2006) 321-331). In addition, secondary- and selectivity assays were performed using SSAO prepared from various tissues or purified rat recombinant SSAO. The enzyme activity was assayed with benzylamine as substrate by measuring either benzaldehyde production, using ^14C-labeled substrate, or by utilizing the production of hydrogen peroxide in a horseradish peroxidase (HRP) coupled reaction. Briefly, test compounds were dissolved in dimethyl sulfoxide (DMSO) to a concentration of 10 mM. Dose-response measurements were assayed by either creating 1:10 serial dilutions in DMSO to produce a 7 point curve or by making 1:3 serial dilutions in DMSO to produce 11 point curves.
In a horseradish peroxidase (HRP) coupled reaction, hydrogen peroxide oxidation of 10-acetyl-3,7-dihydroxyphenoxazine produced resorufin, which is a highly fluorescent compound (Zhout and Panchuk-Voloshina. Analytical Biochemistry 253 (1997) 169-174; Amplex® Red Hydrogen Peroxide/peroxidase Assay kit, Invitrogen A22188). Enzyme and compounds in 50 mM sodium phosphate, pH 7.4 were set to pre-incubate in flat-bottomed microtiter plates for approximately 15 min before initiating the reaction by addition of a mixture of HRP, benzylamine and Amplex reagent. Benzylamine concentration was fixed at a concentration corresponding to the Michaelis constant, determined using standard procedures. Fluorescence intensity was then measured at several time points during 1-2 h, exciting at 544 nm and reading the emission at 590 nm. For the human SSAO assay final concentrations of the reagents in the assay wells were: SSAO enzyme 1 ug/ml, benzylamine 100 uM, Amplex reagent 20 uM, HRP 0.1 U/mL and varying concentrations of test compound. The inhibition was measured as % decrease of the signal compared to a control without inhibitor (only diluted DMSO). The background signal from a sample containing no SSAO enzyme was subtracted from all data points. Data was fitted to a four parameter logistic model and IC50 values were calculated using the GraphPad Prism 4 or XLfit 4 programs.
SSAO activity was assayed using 14C-labeled benzylamine and analysed by measuring radioactive benzaldehyde. In a white 96-well optiplate (Packard), 20 uL of diluted test compound was pre-incubated at room temperature with 20 uL SSAO enzyme for approximately 15 min with continuous agitation. All dilutions were made with PBS. The reaction was initiated by adding 20 uL of the benzylamine substrate solution containing [7-14C] Benzylamine hydrochloride (CFA589, GE Healthcare). The plate was incubated for 1 h as above after which the reaction was stopped by acidification (10 uL 1M aq HCl). Then 90 uL Micro Scint-E solution (Perkin-Elmer) was added to each well and the plate was continuously mixed for 15 min. Phase separation occurred instantly and activity was read in a Topcount scintillation counter (Perkin-Elmer). In the final reaction well, the human recombinant SSAO concentration was 10 ug/ml. In order to optimize sensitivity, the substrate concentration was decreased as compared to the HRP coupled assay in order to get a higher fraction of radioactive product. In the human SSAO assay, benzylamine concentration was 40 uM (0.2 uCi/mL). Data was analysed as above.

Data set [2] concerns the target human ether a go-go related gene (hERG) K+ channel (Homo sapiens (Human), UniProt Q12809). In words: hERG assay, IonWorks patch clamp electrophysiology. It is filed as cell-based. The settings on record: Chinese Hamster Lung cell line stably expressing hERG; max assay concentration 11 uM. As for the experimental part: Compounds of the invention were tested for inhibition of the human ether a go-go related gene (hERG) K^+ channel using IonWorks patch clamp electrophysiology. 8 Point concentration-response curves were generated on two occasions using 3-fold serial dilutions from the maximum assay concentration (11 uM). Electrophysiological recordings were made from a Chinese Hamster Lung cell line stably expressing the full length hERG channel. Single cell ion currents were measured in the perforated patch clamp configuration (100 ug/mL amphoterocin) at room temperature using an IonWorks Quattro instrument. The internal solution contained 140 mM KCl, 1 mM MgCl2, 1 mM EGTA and 20 mM HEPES and was buffered to pH 7.3. The external solution contained 138 mM NaCl, 2.7 mM KCl, 0.9 mM CaCl2, 0.5 mM MgCl2, 8 mM Na2HPO4 and 1.5 mM KH2PO4, and was buffered to pH 7.3. […] This sequence was repeated 5 times at a frequency of 0.25 Hz. Currents were measured from the tail step at the 5th pulse, and referenced to the holding current. Compounds were incubated for 6-7 min prior to a second measurement of the hERG signal using an identical pulse train. […] A control compound (quinidine) was used (see Table 20 below).
Background: Block of hERG is tested as a sign of cardiac risk.

Structures can show the parent of a compound that is named as a salt.

Sequence of human ether a go-go related gene (hERG) K+ channel (Q12809 whole entry): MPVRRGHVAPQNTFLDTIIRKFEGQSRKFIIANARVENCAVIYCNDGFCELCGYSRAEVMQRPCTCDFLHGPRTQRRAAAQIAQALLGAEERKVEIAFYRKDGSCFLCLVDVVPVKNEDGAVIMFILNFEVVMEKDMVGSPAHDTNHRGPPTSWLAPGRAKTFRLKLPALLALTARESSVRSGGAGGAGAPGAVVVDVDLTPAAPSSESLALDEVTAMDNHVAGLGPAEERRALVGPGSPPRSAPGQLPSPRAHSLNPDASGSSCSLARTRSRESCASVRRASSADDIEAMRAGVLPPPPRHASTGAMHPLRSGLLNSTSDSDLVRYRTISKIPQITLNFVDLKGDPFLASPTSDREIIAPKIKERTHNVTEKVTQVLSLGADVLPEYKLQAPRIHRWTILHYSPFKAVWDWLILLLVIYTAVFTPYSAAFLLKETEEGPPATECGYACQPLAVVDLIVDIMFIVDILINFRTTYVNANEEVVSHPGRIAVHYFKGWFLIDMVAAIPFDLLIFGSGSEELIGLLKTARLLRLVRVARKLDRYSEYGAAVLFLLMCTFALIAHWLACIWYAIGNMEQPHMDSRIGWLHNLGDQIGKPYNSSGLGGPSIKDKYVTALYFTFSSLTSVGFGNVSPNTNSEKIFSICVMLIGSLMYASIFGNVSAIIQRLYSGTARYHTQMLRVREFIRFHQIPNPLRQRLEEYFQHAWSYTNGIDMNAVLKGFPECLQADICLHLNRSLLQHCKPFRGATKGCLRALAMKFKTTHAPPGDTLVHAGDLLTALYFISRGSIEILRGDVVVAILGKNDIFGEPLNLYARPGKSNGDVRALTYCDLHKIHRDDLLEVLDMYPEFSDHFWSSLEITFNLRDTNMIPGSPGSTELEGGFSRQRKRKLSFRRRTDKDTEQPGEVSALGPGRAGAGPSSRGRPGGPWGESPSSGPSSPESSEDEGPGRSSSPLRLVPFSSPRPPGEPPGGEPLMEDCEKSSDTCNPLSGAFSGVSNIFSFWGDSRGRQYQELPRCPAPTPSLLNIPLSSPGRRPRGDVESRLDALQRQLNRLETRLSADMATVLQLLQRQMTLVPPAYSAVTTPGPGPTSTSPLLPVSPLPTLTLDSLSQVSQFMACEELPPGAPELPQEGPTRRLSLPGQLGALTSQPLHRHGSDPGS
Sequence of purified recombinantly expressed human SSAO (Q16853 29-763): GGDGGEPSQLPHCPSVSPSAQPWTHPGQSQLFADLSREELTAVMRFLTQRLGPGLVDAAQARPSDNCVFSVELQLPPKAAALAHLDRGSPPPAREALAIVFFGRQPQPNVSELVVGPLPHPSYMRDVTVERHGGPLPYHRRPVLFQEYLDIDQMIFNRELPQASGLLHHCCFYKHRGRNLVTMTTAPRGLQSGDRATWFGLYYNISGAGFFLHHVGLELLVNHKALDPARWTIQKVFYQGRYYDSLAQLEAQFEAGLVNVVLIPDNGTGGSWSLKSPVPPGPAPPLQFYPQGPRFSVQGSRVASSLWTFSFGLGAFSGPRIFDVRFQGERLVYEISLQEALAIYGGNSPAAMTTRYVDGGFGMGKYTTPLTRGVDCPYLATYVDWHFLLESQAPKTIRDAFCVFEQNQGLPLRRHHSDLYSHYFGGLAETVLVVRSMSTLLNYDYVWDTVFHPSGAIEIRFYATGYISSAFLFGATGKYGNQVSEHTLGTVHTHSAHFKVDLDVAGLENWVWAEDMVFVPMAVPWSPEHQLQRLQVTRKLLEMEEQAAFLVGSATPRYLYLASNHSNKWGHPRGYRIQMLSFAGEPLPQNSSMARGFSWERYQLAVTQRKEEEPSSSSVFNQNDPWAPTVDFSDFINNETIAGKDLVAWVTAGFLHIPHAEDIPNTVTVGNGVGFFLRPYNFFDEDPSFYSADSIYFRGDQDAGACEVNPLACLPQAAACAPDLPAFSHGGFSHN

By IC50 is commonly meant the concentration at which inhibition is half-maximal. On to `Cn1cncc1-c1cc2ccncc2n1-c1ccc(Cl)cc1` [Example 136, 5-[1-(4-Chlorophenyl)-1H-pyrrolo[2,3-c]pyridin-2-yl]-1-methyl-1H-im idazole], for which the IC50 is under 0.05 µM in data set [1] and 1 to 10 µM in data set [2]. As for `Clc1ccc(-n2c(-c3ccc(N4CCOCC4)nc3)nc3ccncc32)nc1` [Example 81, 4-{5-[3-(5-Chloropyridin-2-yl)-3H-imidazo[4,5-c]pyridin-2-yl]pyridin-2-yl}morpholine], the IC50 in data set [1] is under 0.05 µM; in data set [2], over 10 µM.

On to `Cc1cc(N2CCOCC2)ncc1-c1nc2ccncc2n1-c1ccc(F)cc1` [Example 21, 4-{5-[3-(4-Fluorophenyl)-3H-imidazo[4,5-c]pyridin-2-yl]-4-methylpyridin-2-yl}morpholine], for which the IC50 in data set [1] is under 0.05 µM; in data set [2] it was over 10 µM. With `Clc1ccc(-n2c(-c3ccncc3)nc3ccncc32)cc1` [Example 2, 4-[3-(4-Chlorophenyl)-3H-imidazo[4,5-c]pyridin-2-yl]pyridine], in data set [2], the half-maximal inhibitory concentration (IC50) is over 10 µM.

For `Clc1ccc(-n2c(-c3cnc(NC4CCOCC4)nc3)nc3ccncc32)cc1` [Example 11, 5-[3-(4-Chlorophenyl)-3H-imidazo[4,5-c]pyridin-2-yl]-N-(oxan-4-yl)pyrimidin-2-amine; bis(trifluoroacetic acid)], the IC50 is under 0.05 µM in data set [1] and over 10 µM in data set [2]. With `Clc1ccc(-n2c(-c3cnc(N4CCNCC4)o3)nc3ccncc32)cc1` [Example 18, 1-{5-[3-(4-Chlorophenyl)-3H-imidazo[4,5-c]pyridin-2-yl]-1,3-oxazol-2-yl}piperazine dihydrochloride], the IC50 in data set [2] was over 10 µM. As to `Cc1ccc(-n2c(-c3ccc(N4CCOCC4)nc3)nc3ccncc32)cn1` [Example 64, 4-{5-[3-(6-Methylpyridin-3-yl)-3H-imidazo[4,5-c]pyridin-2-yl]pyridin-2-yl}morpholine], in data set [2], the IC50 was over 10 µM. Take `C[C@@H]1CN(c2ncc(-c3nc4ccncc4n3-c3ccc(F)cc3)cn2)C[C@H](C)O1` [Example 23, (2R,6S)-4-{5-[3-(4-Fluorophenyl)-3H-imidazo[4,5-c]pyridin-2-yl]pyrimidin-2-yl}-2,6-dimethylmorpholine]: the IC50 is under 0.05 µM in data set [1] and over 10 µM in data set [2]. In data set [2], `Cc1ccc(-n2c(-c3cnc(N4CCOCC4)nc3)nc3ccncc32)c(F)c1` [Example 53, 4-{5-[3-(2-Fluoro-4-methylphenyl)-3H-imidazo[4,5-c]pyridin-2-yl]pyrimidin-2-yl}morpholine] had an IC50 of over 10 µM.

As to `CC1(C)CN(c2ncc(-c3nc4ccncc4n3-c3ccc(F)cc3)cn2)CCO1` [Example 24, 4-{5-[3-(4-Fluorophenyl)-3H-imidazo[4,5-c]pyridin-2-yl]pyrimidin-2-yl}-2,2-dimethylmorpholine], the IC50 in data set [1] is under 0.05 µM; in data set [2], over 10 µM. As to `CN1CCN(Cc2ccc(-c3nc4ccncc4n3-c3ccc(Cl)cc3)cc2)CC1` [Example 46, 1-({4-[3-(4-Chlorophenyl)-3H-imidazo[4,5-c]pyridin-2-yl]phenyl}methyl)-4-methylpiperazine; formic acid], the figures for the IC50 in data set [1] and in data set [2] were under 0.05 µM and over 10 µM, respectively. The matching figures for `Fc1ccc(-n2c(-c3cnc(N4CCOCC4)nc3)nc3ccncc32)cc1` [Example 52, 4-{5-[3-(4-Fluorophenyl)-3H-imidazo[4,5-c]pyridin-2-yl]pyrimidin-2-yl}morpholine]: under 0.05 µM and over 10 µM. Turning to `Fc1ccc(-n2c(-c3ccc(N4CCOCC4)nc3)nc3ccncc32)cc1` [Example 54, 4-{5-[3-(4-Fluorophenyl)-3H-imidazo[4,5-c]pyridin-2-yl]pyridin-2-yl}morpholine], in data set [2], the IC50 was over 10 µM.

Consider `Cc1ccc(-n2c(-c3cnc(N4CCOCC4)nc3)nc3ccncc32)cc1` [Example 57, 4-{5-[3-(4-Methylphenyl)-3H-imidazo[4,5-c]pyridin-2-yl]pyrimidin-2-yl}morpholine], for which the IC50 in data set [2] is over 10 µM. For `CC(=O)NC1CCN(c2ccc(-c3nc4ccncc4n3-c3ccc(Cl)cc3)cn2)CC1` [Example 85, N-(1-{5-[3-(4-Chlorophenyl)-3H-imidazo[4,5-c]pyridin-2-yl]pyridin-2-yl}piperidin-4-yl)acetamide], the results for the IC50 in data set [1] and in data set [2] were under 0.05 µM and over 10 µM, respectively. Turning to `Fc1cc(Cl)ccc1-n1c(-c2ccc(N3CCOCC3)nc2)nc2ccncc21` [Example 80, 4-{5-[3-(4-Chloro-2-fluorophenyl)-3H-imidazo[4,5-c]pyridin-2-yl]pyridin-2-yl}morpholine], in data set [2], the IC50 is over 10 µM. Same read-out and setting: the same measure for `Cc1ccc(-n2c(-c3ccc(N4CCOCC4)nc3)nc3ccncc32)cc1` [Example 63, 4-{5-[3-(4-Methylphenyl)-3H-imidazo[4,5-c]pyridin-2-yl]pyridin-2-yl}morpholine]: over 10 µM; for `Nc1ccc(-c2nc3ccncc3n2-c2ccc(Cl)cc2)cn1` [Example 110, 5-[3-(4-Chlorophenyl)-3H-imidazo[4,5-c]pyridin-2-yl]pyridin-2-amine]: over 10 µM; for `CN(C)c1ccc(-c2nc3ccncc3n2-c2ccc(F)cc2)cn1` [Example 71, 5-[3-(4-Fluorophenyl)-3H-imidazo[4,5-c]pyridin-2-yl]-N,N-dimethylpyridin-2-amine]: over 10 µM. The same measure, in the same setting: the same measure for `Fc1ccc(-n2c(-c3cnc(N4CCOCC4)c(F)c3)nc3ccncc32)cc1` [Example 98, 4-{3-Fluoro-5-[3-(4-fluorophenyl)-3H-imidazo[4,5-c]pyridin-2-yl]pyridin-2-yl}morpholine]: over 10 µM; for `c1ccc(-n2c(-c3cnc(N4CCOCC4)nc3)nc3ccncc32)cc1` [Example 95, 4-(5-{3-Phenyl-3H-imidazo[4,5-c]pyridin-2-yl}pyrimidin-2-yl)morpholine]: over 10 µM.

On to `COCCN(C)c1ncc(-c2nc3ccncc3n2-c2ccc(C)cc2)cn1` [Example 117, N-(2-Methoxyethyl)-N-methyl-5-[3-(4-methylphenyl)-3H-imidazo[4,5-c]pyridin-2-yl]pyrimidin-2-amine], for which, in data set [2], the IC50 was over 10 µM. Still for that read-out and setting: the same measure for `Clc1ccc(-n2c(-c3ccc(CN4CCOCC4)nc3)nc3ccncc32)cc1` [Example 3, 4-({5-[3-(4-Chlorophenyl)-3H-imidazo[4,5-c]pyridin-2-yl]pyridin-2-yl}methyl)morpholine]: over 10 µM. Still for that read-out and setting: the same measure for `Fc1ccc(-n2c(-c3cnc(NC4CCOCC4)nc3)nc3ccncc32)cc1` [Example 20, 5-[3-(4-Fluorophenyl)-3H-imidazo[4,5-c]pyridin-2-yl]-N-(oxan-4-yl)pyrimidin-2-amine]: over 10 µM. On the same count and under the same terms, for `O=C1CN(c2ncc(-c3nc4ccncc4n3-c3ccc(F)cc3)cn2)CCN1` [Example 12, 4-{5-[3-(4-Fluorophenyl)-3H-imidazo[4,5-c]pyridin-2-yl]pyrimidin-2-yl}piperazin-2-one] the value was over 10 µM; for `Fc1cc(Cl)ccc1-n1c(-c2cnc(N3CCOCC3)nc2)nc2ccncc21` [Example 77, 4-{5-[3-(4-Chloro-2-fluorophenyl)-3H-imidazo[4,5-c]pyridin-2-yl]pyrimidin-2-yl}morpholine], over 10 µM.
